Experiment [1] relates to MV4-11 human acute myeloid leukemia cell with FLT3-ITD mutation. Description: MV4-11 cell proliferation assay (CellTiter 96). In kind it is cell-based. The following applies: Homo sapiens, MV4-11, 72 h, MV4-11 cells, 72 hours treatment, CellTiter96; read-out: anti-proliferation activity MV4-11 (FLT3-ITD), IC50 ranking. An outline of the steps:
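Cells seeded at 6500/well in IMDM with 10% heat-inactivated FBS, left overnight at 37 °C, 5% CO2, then exposed to increasing compound concentrations for 72 h. Viability read as absorbance at 490 nm after 2–4 h with CellTiter96 AQueous One reagent.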

The subject of experiment [2] is HCC827 NSCLC cell with EGFR exon 19 deletion mutation. Description: HCC827 cell proliferation assay (counter screen). It is filed as cell-based, human. The following applies: Homo sapiens, HCC827 cells, 72 hours treatment, CellTiter96, read-out: anti-proliferation activity HCC827 EGFR Exon19 del, IC50 ranking. The method, boiled down:
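HCC827 cells (EGFR exon 19 deletion) were seeded at 8000 cells/well in RPMI1640 with 10% FBS, then exposed to increasing compound concentrations for 72 h at 37 °C. Viability was read by CellTiter96 AQueous One (MTS), absorbance 490 nm after 2–4 h.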
(In general: Counterscreens check selectivity or assay interference.)

The test system of experiment [3] is phosphorylation of FLT3 and its down-stream effector STAT5. The experiment can be described thus: Western blotting of p-FLT3 and p-STAT5 in MV4-11 cells. It is filed as cell-based. The following applies: Homo sapiens; at 30 nM treatment, 3 hours, FLT3-ITD positive MV4-11 leukemia cells; read-out: inhibition activity against phosphorylation of FLT3 and its down-stream effector STAT5. The method, boiled down: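 MV4-11 cells held overnight in IMDM with 0.1% FBS, then 3 million cells treated with compound for 3 h. Whole lysates immunoblotted for p-FLT3 (Tyr-591), p-STAT5 (Tyr-694) and actin. Band intensities at 30 nM compared to DMSO control; % inhibition = (1 − relative intensity) × 100.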
On the technique in general: In western blotting, separated proteins are transferred to a membrane and probed.

What is called inhibition is the percentage by which the read-out fell short of the control. Turning to `Cn1ncc2ccc(-c3n[nH]c4c3Cc3sc(C5CCN(C(=O)CN6CCOCC6)CC5)cc3-4)cc21` [Compound 98, 1-(4-(3-(1-methyl-1H-indazol-6-yl)-1,4-dihydro-thieno[2′,3′:4,5]cyclopenta [1,2-c]pyrazol-6-yl)piperidin-1-yl)-2-morpholinoethan-1-one], the results for the IC50 in experiment [1] and in experiment [2] were under 30 nM and over 10000 nM, respectively. For the same compound, the inhibition at 0.03 µM in experiment [3] is over 50%.
Take `Cn1ncc2ccc(-c3n[nH]c4c3Cc3sc(-c5ccc(CN6CCCC6)cc5)cc3-4)cc21` [Compound 99, 3-(1-methyl-1H-indazol-6-yl)-6-(4-(pyrrolidin-1-ylmethyl)phenyl)-1,4-dihydrothieno[2′,3′:4,5] cyclopenta[1,2-c]pyrazole]: the values for the IC50 in experiment [1] and in experiment [2] were under 30 nM and over 10000 nM, respectively. The inhibition at 0.03 µM in experiment [3] was over 50%.
As for `Cn1ncc2ccc(-c3n[nH]c4c3Cc3sc(-c5ccc(CN6CCCCC6)cc5)cc3-4)cc21` [Compound 100, 3-(1-methyl-1H-indazol-6-yl)-6-(4-(piperidin-1-ylmethyl)phenyl)-1,4-dihydrothieno[2′,3′:4,5] cyclopenta[1,2-c]pyrazole], the IC50 in experiment [1] is under 30 nM; in experiment [2] it was over 10000 nM. Also, the inhibition at 0.03 µM in experiment [3] was over 50%.
Take `Cn1ncc2ccc(-c3n[nH]c4c3Cc3sc(-c5ccc(CN6CC7(COC7)C6)cc5)cc3-4)cc21` [Compound 102, 6-(4-(3-(1-methyl-1H-indazol-6-yl)-1,4-dihydro-thieno[2′,3′:4,5]cyclopenta [1,2-c]pyrazol-6-yl)benzyl)-2-oxa-6-azaspiro [3.3]heptane]: the IC50 in experiment [1] was 30 to 100 nM; in experiment [2], over 10000 nM. Also, the inhibition at 0.03 µM in experiment [3] was over 50%.
As to `Cn1ncc2ccc(-c3n[nH]c4c3Cc3sc(-c5ccc(CN6CCC6)cc5)cc3-4)cc21` [Compound 103, 6-(4-(azetidin-1-ylmethyl)phenyl)-3-(1-methyl-1H-indazol-6-yl)-1,4-dihydro-thieno[2′,3′:4,5]cyclopenta [1,2-c]pyrazole], the IC50 in experiment [1] was under 30 nM; in experiment [2] it was over 10000 nM. Also, the inhibition at 0.03 µM in experiment [3] is over 50%.
With `COC1CN(Cc2ccc(-c3cc4c(s3)Cc3c(-c5ccc6cnn(C)c6c5)n[nH]c3-4)cc2)C1` [Compound 105, 6-(4-((3-methoxyazeti-din-1-yl)methyl)phenyl)-3-(1-methyl-1H-indazol-6-yl)-1,4-dihydrothieno [2′,3′:4,5]cyclopenta [1,2-c]pyrazole], the IC50 is under 30 nM in experiment [1] and over 10000 nM in experiment [2]. The inhibition at 0.03 µM in experiment [3] was over 50%.

The values are drawn from patent publication US12448394B2, “Heterocyclic pyrazole derivatives as type III receptor tyrosine kinase inhibitors” (DEVELOPMENT CENTER FOR BIOTECHNOLOGY, priority 2019, dated 2025).
